The record followed here is patent US20250231189A1, “MEASURING FREQUENCY OF PATHOGEN-SPECIFIC T CELLS IN […] AS E[…] TCR-INDUCED CA(2+) SIGNALING” (Thomas Jefferson University, priority 2017, published 2025).

Entries after “also recorded” stand apart in the source; their conditions may differ.

The assay relates to cloned T cells (68A62). The assay is described as follows: Ca2+ mobilization pattern in individual T cells of a T-cell monolayer (Fluo-4 fluorescence microscopy). It counts as cell-based, human. The note with it: for fraction of T cells with slower Ca2+ mobilization (pattern of inefficient T cells) / fraction of cells with rapid/strong and sustained pattern of Ca2+ flux: CTL clone 68A62, strong agonist peptide 10^-4 M IV9, FIG. 4. The text has this:
HIV- and Flu-specific human CD8+ T cell clones, termed 68A62 and CER43, were kindly provide by Bruce Walker and Antonio Lanzavecchia, correspondingly. These T cells recognize […] (IV9) and […] (GL9) peptides, respectively, both presented by HLA-A2 MHC class I. 115iX is a CD8+ T cell line developed from CTL D3 as a result of spontaneous mutation in its TCR β chain resulting in loss of specificity for its natural ligand (Anikeeva and Sykulev, unpublished). These were used as T cells with irrelevant specificity. After stimulation with a mixture of allogeneic PBMC and IL2 the cells are typically used in resting stage, 12-17 days after the stimulation as previously described.
10^6 cells in 1 ml of PBS were loaded with Fluo-4 (Life Technologies) at 2-4 μM for 30 min at 37° C. in the presence of 0.02% pluoronic acid F-127 and 4 mM Probenecid. The cells were washed free of unreacted reagents and incubated at 37° C. for additional 30 min. The cells were then re-suspended in the assay buffer (Dulbecco's PBS containing 1 mM CaCl2, 2 mM MgCl2, 5 mM glucose, and 0.025% BSA) and used for Ca2+ flux analysis.
Glass bottom of 96 well MatTec plates was covered with poly-L-Lysine (Sigma, mol wt>300,000) at 0.1 mg/ml for 1 hr at room temperature. After washing with DPBS and add water, TS2/4 non-blocking mAb specific for LFA-1 were added to the plate at concentration 10 μg/ml overnight & 4° C. The wells were washed with DPBS, and 3×10^5 Fluo-4-labeled T cells in 100 μl of the assay buffer were added to each well. The plates were centrifuged for 200 g for one minute and were incubated for 30 min at room temperature prior to the imaging. Suspended cells were removed by gentle washing with assay buffer. The quality of T cell monolayer was assessed using bright field microscopy.
To identify responding T cells we imaged T-cell monolayers before (background measurement) and after (response) addition of the stimulatory signal such as agonist peptide. The images of T-cell monolayers were taken at various exposure times using 10× or 20× objectives. Instead of averaging the entire set of stimulatory signal against an agonist peptide, we identified sets of cells, having different response rates and then averaged these, now separated sets of cells. This is in direct contrast to the general averaging strategy provided in PCT/US2016/039313. In some experiments Ca2+ response was also initiated by ionomycin at 10 μg/ml to optimize exposure time (data not shown). The average intensity of images prior and after the T-cell stimulation at various time points and the numbers of individual responding cells per imaging field were determined by MetaMorph software.
Glass bottom of 96-well plates was covered with poly-L-Lysine to capture TS2/4 antibody recognizing LFA-1 adhesion receptor without blocking LFA-1 functional activity. Cloned CD8 T cells with known specificity or polyclonal CD8 T cells were labeled with Ca2+ fluorophore Fluor-4 and added to the wells. The quality of the T-cell monolayers was evident from analysis of bright field images of the immobilized T cells on the glass bottom of the plate. This method allows T cells to form a continuous monolayer allowing the T cells to contact each other, which is necessary for presentation and recognition of pMHC on one T cell by another T cell.
The immobilized cells, after they are provided with stimulation of a peptide, can be imaged. Accordingly, we can take a first image, to identify the background image of each individual cell, before and after the stimulation. Accordingly, we can look at the calcium concentration of each individual cell across time. By looking at each cell, we can then determine and add them to one of three boxes for responding cells, and then a fourth type of cell that is either non-responsive or there is calcium flux that happens with or without stimulation-this typically results in a sharp peak of intensity that quickly diminishes.
A general note: Calcium assays in cells follow changes in intracellular calcium, usually with a dye or a luminescent sensor.

Setting [1] is: listed as strong agonist ligand.

On to “ILKEPVHGV [IV9, peptide from HIV reverse transcriptase, presented by HLA-A2, recognized by CTL clone 68A62]”, for which the “fraction of T cells with slower Ca2+ mobilization (pattern of inefficient T cells)” value came to 20%; the “fraction of cells with rapid/strong and sustained pattern of Ca2+ flux” value was “about 90%”. Further, the “pattern of Ca2+ response of majority of T cells” value (“pattern … of majority of T cells” below) (CD8 CTL 68A62, 10^-4 M IV9 peptide, FIG. 4) was “rapid and sustaine”. In addition, under setting [1], the “fraction of T cells with slower Ca2+ mobilization (pattern of inefficient T cells)” value is listed as “less than 20%”; the “fraction of cells with rapid/strong and sustained pattern of Ca2+ flux” value is recorded as “More than 80%”. The “pattern … of majority of T cells” value (CTL clone 68A62, suboptimal (much lower) concentration of the strong agonist peptide, FIG. 6) was “rapid and oscillating pattern of Ca2+ mobilization; also recorded: quick, but oscillating”. Where the note is “CTL clone 68A62, suboptimal (much lower) concentration of the strong agonist peptide, FIG. 6, listed as strong agonist pMHC ligand”, the “pattern … of majority of T cells” value is reported as “slow oscillating kinetics of Ca2+ mobilization”.
